# According to publication PMC4788259 (PLoS Neglected Tropical Diseases, 2016):
# Test system: E. multilocularis metacestodes
# Assay: PGI assay: phosphoglucose isomerase release from damaged metacestodes
# Type: cell-based, Echinococcus multilocularis
# Settings: 10 μM, 5 days, single wells, relative to DB1127 (10 μM)
# Procedure: The preparation of E. multilocularis metacestode material (strain H95) from intraperitoneally (i.p.) infected BALB/c mice was performed as described earlier. Metacestode vesicles were used for in vitro drug screening when they reached 2 to 4 mm in diameter.
# For screening of the Malaria Box against E. multilocularis metacestodes, the PGI screening assay was applied that measures the release of the enzyme phosphoglucose isomerase (PGI) upon physical impairment of metacestodes. The screening setup was done in 24 well plates as described by Stadelmann et al. For initial screening, each drug was applied at 10 μM to metacestodes in single wells. As a positive control-drug, the dicationic diguanidino compound DB1127 (10 μM) was used and 0.1% DMSO was added as negative control. Metacestodes were cultured in the presence of the compounds for 5 days, after which PGI release was quantified exactly as stated in Stadelmann et al. […] Averages, standard deviations and EC50 values were calculated in Microsoft Excel 2010.
row,SMILES,PGI (% of DB1127 at 10 uM)
1,CCN(CC)CCCNc1ccnc2cc3ccccc3cc12 [MMV665783],-52.95%
2,Cc1ccc(-c2cc3c(SCC(=O)Nc4cc(C(F)(F)F)ccc4Cl)nccn3n2)cc1 [MMV396680],-41.44%
3,CC(C)(C)c1ccc(C(=O)Nc2nc3ccccc3s2)cc1 [MMV142383],-17.15%
4,O=C(Nc1ccc(Cl)cc1C(=O)Nc1ccncc1)c1ccc(Cl)cc1Cl [MMV666057],-78.23%
5,O=C(Nc1ccccc1O)c1ccc(-c2ccc(Cl)cc2Cl)o1 [MMV665948],-40.46%
6,Cc1cc(NC(=O)c2ccc(-c3ccccc3)cc2)no1 [MMV018984],6.32%
7,CCCCC(O)(c1ccc(Cl)cc1)C(CN1CCOCC1)c1ccc(Cl)cc1.Cl (stereo not shown) [MMV000619],-6.41%
8,O=C(Nc1ccc(N2CCCCC2)c(Cl)c1)c1ccc(Br)o1 [MMV019700],-40.52%
9,COc1cc(OC)cc(N2C(=O)N(Cc3ccc(C(C)(C)C)cc3)c3ccccc3S2(=O)=O)c1 [MMV008173],-29.78%
10,O=C(CCl)NCCOc1ccc(Cl)cc1Cl [MMV665927],24.95%
11,O=C(Nc1ccc(-c2nc3ccccc3[nH]2)cc1)c1ccc(Cl)c(Cl)c1 [MMV665840],-1.75%
12,CCOc1cccc2sc(N(Cc3cccnc3)C(=O)C3CCCCC3)nc12 [MMV001230],-26.73%
13,COc1ccc(-c2nonc2NC(=O)c2cccc(Cl)c2)cc1OC [MMV020660],-20.61%
14,COCCNCC(O)Cn1c2ccc(Cl)cc2c2cc(Cl)ccc21 (stereo not shown) [MMV019017],20.81%
15,Oc1ccc(C(=C(Cl)Cl)c2ccc(O)cc2)cc1 [MMV665949],8.99%
16,CCOc1c(Cl)cc(CNC(C)C(O)c2ccccc2)cc1OC (stereo not shown) [MMV665857],-30.92%
17,CN(C)c1ccc(N=Cc2ccc(N3CCOCC3)cc2)cc1 [MMV073843],-14.14%
18,Cc1cccc(N2C(=O)C3C(C2=O)C2(c4ccccc4)C(=O)C3(c3ccccc3)C(c3ccc4c(c3)OCO4)=C2c2ccc3c(c2)OCO3)c1 (stereo not shown) [MMV007228],7.95%
19,OC(CNC1CCCCC1)Cn1c2ccc(I)cc2c2cc(I)ccc21 (stereo not shown) [MMV665882],54.36%
20,CCOC(=O)c1c(C)n(-c2ccc(Cl)cc2)c2ccc(OC(=O)C=Cc3ccccc3)cc12 [MMV666600],-39.04%
21,CCN(CC)CCn1c(=N)n(CC(O)c2ccc(Cl)c(Cl)c2)c2ccccc21.Cl (stereo not shown) [MMV000248],-18.11%
22,CCCCNCC(O)(c1ccc(Cl)cc1)c1ccc(Cl)cc1 [MMV665929],-0.59%
23,CCCCc1c(CCC)c(=N)c2ccccc2n1C.I [MMV007764],29.51%
24,CCN(CC)c1cc(C)c2cc(NC(=O)c3cccc(OC)c3)ccc2n1 [MMV000498],4.05%
25,COc1ccccc1CNC(=O)C1c2ccccc2C(=O)N(CC(C)C)C1c1cccs1 (stereo not shown) [MMV000648],-8.86%
26,O=C(Cc1ccccc1)NC(c1ccc(Cl)cc1)c1c(O)ccc2ccccc12 (stereo not shown) [MMV665972],15.67%
27,Cc1ccc(-c2cc3c(nn2)-c2ccccc2C3=O)cc1 [MMV666021],-22.93%

row,SMILES,PGI (% of DB1127 at 10 uM)
1,COc1cccc(Nc2nc(N)c3ccccc3n2)c1.Cl [MMV019199],-26.29%
2,CCOC(=O)c1cn(CC)c2cc(N(C)CCc3ccc(OC)c(OC)c3)c(F)cc2c1=O [MMV665977],-67.06%
3,CCN(CC)CCCNc1nc(-c2ccc(Cl)cc2)nc2ccccc12 [MMV665961],-34.32%
4,O=C(Nc1ccc(-c2nc3cc(NC(=O)c4ccc(Cl)cc4)ccc3[nH]2)cc1)c1ccc(Cl)cc1 [MMV006962],-9.85%
5,COc1ccccc1N1C(=N)SC(=Cc2ccc(OCc3ccccc3F)cc2)C1=O [MMV007199],-51.03%
6,CCOC(=O)c1c[nH]c2ccc(CC)cc2c1=O [MMV007116],80.46%
7,COc1ccc(-c2nc3cc(Cc4ccc5[nH]c(-c6ccc(OC)cc6)nc5c4)ccc3[nH]2)cc1 [MMV007384],61.95%
8,Cc1ccc(-c2nc3ccccc3o2)cc1NCc1cc(Cc2ccccc2)ccc1O [MMV020912],-2.94%
9,CCC1(C)CC(CCNCc2ccccc2O)(c2ccc(C)cc2)CCO1 (stereo not shown) [MMV019406],-21.13%
10,Cc1ccccc1OCCSc1nc2ccc(NC(=O)c3cccs3)cc2s1 [MMV007396],-6.56%
11,CCCc1cc(O)c2c3c(c(=O)oc2c1)CN(C)CC3 [MMV665841],-34.14%
12,CSC1=NC(=Nc2c(C)cccc2C)C2(CCC(C(C)(C)C)CC2)N1c1ccc(Cl)cc1 (stereo not shown) [MMV666596],-70.72%
13,CCOc1ccc(Nc2c3ccccc3nc3ccccc23)cc1.Cl [MMV000304],38.31%
14,Cc1cc(Nc2ccc(OCc3ccccc3)cc2)nc2cc(O)ccc12 [MMV007181],115.72%
15,CCN(CC)CCNc1ccnc2cc(Cl)ccc12 [MMV006087],-37.06%
16,CCOC(=O)c1c(C)n(-c2ccccc2)c2ccc(OC(=O)c3cc(OC)c(OC)c(OC)c3)cc12 [MMV396664],-2.70%
17,Cc1c(C)n(CC(O)CNC2CCCCC2C)c2ccccc12 (stereo not shown) [MMV665806],5.77%
18,COCCn1c(C)nc2ccccc2c1=O [MMV665904],-26.17%
19,Cc1c(C)n(Cc2ccc(F)cc2)c2ccc(C(=O)NCc3ccco3)cc12 [MMV008149],-33.19%
20,CCCCOc1ccc(C(=O)Nc2cc(C)on2)cc1 [MMV007906],-15.33%
21,CCc1c(C)c(=N)c2ccccc2n1C.I [MMV006278],-42.72%
22,Br.CCn1c2c(c(=N)c3c1CCC3)CCCC2 [MMV000340],2.86%
23,Cl.c1ccc2c(NCCCCCCNc3c4c(nc5ccccc35)CCCC4)c3c(nc2c1)CCCC3 [MMV019555],-3.16%
24,CCCCCCC(O)(c1ccc(F)cc1)C(CN1CCOCC1)c1ccccc1.Cl (stereo not shown) [MMV000621],-30.63%
25,CCN(CC)CCNc1ncnc2c1[nH]c1ccc(Cl)cc12 [MMV396703],-47.33%
26,O=C1c2ccc3c4c(ccc(c24)C(=O)N1CCCCO)C(=O)N(CCCCO)C3=O [MMV009085],-6.63%
27,CCOC(=O)c1cnc2ccc(Cl)cc2c1NCCCN(C)C [MMV006882],9.75%

row,SMILES,PGI (% of DB1127 at 10 uM)
1,Cc1cc(N(C)C)nc(Nc2ccc(NC(=O)Nc3ccccc3)cc2)n1 [MMV020243],0.64%
2,O=C(O)C1Cc2c([nH]c3ccccc23)C(c2ccc(Cl)cc2Cl)N1 (stereo not shown) [MMV008138],-14.05%
3,O=C(NC1CCCCC1)C(c1cccs1)N(CCc1ccccc1)C(=O)c1ccco1 (stereo not shown) [MMV666106],2.06%
4,COc1cc(SC)ccc1C(=O)N1CCCC(C)C1 (stereo not shown) [MMV056726],16.15%
5,CCOc1cc(Br)c(C(C)NC(=O)c2cccc(OC)c2)cc1OCC (stereo not shown) [MMV665796],-1.06%
6,Cc1cc(N2CCCC2)nc(Nc2ccc(NC(=O)CCc3ccccc3)cc2)n1 [MMV396669],-21.92%
7,O=C(NCC1Cc2cccc(-c3ccncc3)c2O1)c1csc2c1CCCC2 (stereo not shown) [MMV665954],-10.62%
8,O=C(NC1CCCC1)c1ccc(N2CCC(NCc3cccc(C(F)(F)F)c3)CC2)cc1 [MMV666070],-8.11%
9,COc1ccc(-c2c(C)nn3c(N)c(C#N)cnc23)cc1OC [MMV396797],-51.42%
10,COc1ccc(C(=O)Nc2nonc2-c2ccc(OC)c(OC)c2)cc1Cl [MMV011567],-5.45%
11,Cn1c(C(=O)c2cccc3ccccc23)nc2ccccc21 [MMV665824],-1.12%
12,COc1ccc(NC(=O)C2c3ccccc3C(=O)N(CC(C)C)C2c2cccs2)cc1 (stereo not shown) [MMV000662],-25.19%
13,CC1(c2ccccc2)Nc2ccccc2-c2nc3ccccc3n21 (stereo not shown) [MMV396715],-22.40%
14,O=C1CC(O)(C(F)(F)C(F)(F)F)Oc2ccccc21 (stereo not shown) [MMV000972],141.59%
15,CCOc1cc(CNC(C)C(O)c2ccccc2)cc(Cl)c1OCC (stereo not shown) [MMV396633],30.39%
16,Cc1ccc(Nc2nc(NCCO)c3ccccc3n2)cc1C [MMV001038],16.86%
17,Cc1ccc(Cn2c(N3CCC(C(=O)NCc4cccs4)CC3)nc3ccccc32)cc1 [MMV007564],-118.82%
18,O=C(Nc1ccc(Cl)cc1)N1CCN(c2ccc3nncn3n2)CC1 [MMV665917],-87.17%
19,O=C(NCC(c1ccsc1)N1CCCCCC1)c1ccc(C(F)(F)F)cc1 (stereo not shown) [MMV396672],-34.18%
20,CCn1c(SCC(=O)Nc2cc(C(F)(F)F)ccc2Cl)nc2ccccc2c1=O [MMV666103],-111.41%
21,O=C(Nc1ccccc1O)c1ccc(Oc2cccc(C(=O)Nc3ccccc3O)c2)cc1 [MMV665888],-15.91%
22,COc1ccc2nc(C)cc(Nc3ccc(Cl)cc3)c2c1 [MMV007875],-32.27%
23,O=c1nc(C=Cc2ccc(Br)cc2)oc2ccccc12 [MMV666599],22.37%
24,COc1cc2c(cc1OC)C1=NNC(=O)C1=NC(C)(C)C2 [MMV084940],-19.88%
25,N#Cc1nc(Cc2cccc3ccccc23)oc1N1CCN(C(c2ccccc2)c2ccccc2)CC1 [MMV396726],-6.81%
